pIC50: −log10 of the molar value.

Holding throughout (format): cell-based
The target in one assay is T1, human TLR9 (Homo sapiens, UniProt Q9NR96).
T1 construct: host or cells: HEK-Blue cells
T1 sequence (Q9NR96 26-1032): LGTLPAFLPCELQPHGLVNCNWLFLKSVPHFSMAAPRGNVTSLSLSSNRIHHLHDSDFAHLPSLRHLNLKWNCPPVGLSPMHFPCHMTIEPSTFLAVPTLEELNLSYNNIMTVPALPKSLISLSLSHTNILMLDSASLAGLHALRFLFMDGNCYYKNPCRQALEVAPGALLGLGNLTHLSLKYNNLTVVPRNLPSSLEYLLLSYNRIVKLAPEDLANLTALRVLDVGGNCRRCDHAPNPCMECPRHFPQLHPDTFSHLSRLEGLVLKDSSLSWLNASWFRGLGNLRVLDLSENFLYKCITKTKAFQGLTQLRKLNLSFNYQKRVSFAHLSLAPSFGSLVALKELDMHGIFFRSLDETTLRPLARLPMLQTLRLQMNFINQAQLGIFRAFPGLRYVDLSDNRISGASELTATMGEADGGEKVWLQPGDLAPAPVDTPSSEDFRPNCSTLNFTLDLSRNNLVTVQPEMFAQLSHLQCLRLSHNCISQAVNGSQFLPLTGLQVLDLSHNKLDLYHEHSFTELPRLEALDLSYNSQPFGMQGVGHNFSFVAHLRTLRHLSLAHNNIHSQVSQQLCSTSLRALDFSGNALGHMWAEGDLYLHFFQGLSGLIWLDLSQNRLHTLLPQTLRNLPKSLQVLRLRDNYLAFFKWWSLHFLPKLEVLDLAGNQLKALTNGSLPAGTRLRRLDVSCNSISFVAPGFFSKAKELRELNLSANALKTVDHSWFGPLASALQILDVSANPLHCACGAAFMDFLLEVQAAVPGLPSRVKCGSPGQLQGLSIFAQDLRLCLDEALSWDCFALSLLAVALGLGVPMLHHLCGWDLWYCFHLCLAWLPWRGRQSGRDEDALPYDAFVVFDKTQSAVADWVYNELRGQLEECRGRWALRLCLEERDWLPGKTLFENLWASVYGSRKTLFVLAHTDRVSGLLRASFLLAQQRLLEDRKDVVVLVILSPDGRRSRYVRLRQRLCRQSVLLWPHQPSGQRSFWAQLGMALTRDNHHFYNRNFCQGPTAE
In words: TLR9 inhibition reporter assay (HEK-Blue cells, SEAP reporter, ODN2006 stimulation). The note with it: HEK-Blue cells overexpressing human TLR9, SEAP reporter, ODN2006 5 nM. The procedure, abridged:
(§1)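 Ligand levels: TLR7 gardiquimod 7.5 μM, TLR8 R848 15.9 μM, TLR9 ODN2006 5 nM, added after 30 min room-temperature compound pre-incubation at 0.05 nM-50 μM. Reporter SEAP read with HEK-Blue Detection reagent after 22 h, 37° C. Inhibition expressed as % reduction relative to agonist-plus-DMSO and known-inhibitor controls.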
For orientation: In a reporter assay the amount or activity of a reporter protein is the signal.

The next assay has as its target T2, human TLR7 (Homo sapiens, UniProt Q9NYK1).
T2 construct: host or cells: HEK-Blue cells
T2 sequence (Q9NYK1 27-1049): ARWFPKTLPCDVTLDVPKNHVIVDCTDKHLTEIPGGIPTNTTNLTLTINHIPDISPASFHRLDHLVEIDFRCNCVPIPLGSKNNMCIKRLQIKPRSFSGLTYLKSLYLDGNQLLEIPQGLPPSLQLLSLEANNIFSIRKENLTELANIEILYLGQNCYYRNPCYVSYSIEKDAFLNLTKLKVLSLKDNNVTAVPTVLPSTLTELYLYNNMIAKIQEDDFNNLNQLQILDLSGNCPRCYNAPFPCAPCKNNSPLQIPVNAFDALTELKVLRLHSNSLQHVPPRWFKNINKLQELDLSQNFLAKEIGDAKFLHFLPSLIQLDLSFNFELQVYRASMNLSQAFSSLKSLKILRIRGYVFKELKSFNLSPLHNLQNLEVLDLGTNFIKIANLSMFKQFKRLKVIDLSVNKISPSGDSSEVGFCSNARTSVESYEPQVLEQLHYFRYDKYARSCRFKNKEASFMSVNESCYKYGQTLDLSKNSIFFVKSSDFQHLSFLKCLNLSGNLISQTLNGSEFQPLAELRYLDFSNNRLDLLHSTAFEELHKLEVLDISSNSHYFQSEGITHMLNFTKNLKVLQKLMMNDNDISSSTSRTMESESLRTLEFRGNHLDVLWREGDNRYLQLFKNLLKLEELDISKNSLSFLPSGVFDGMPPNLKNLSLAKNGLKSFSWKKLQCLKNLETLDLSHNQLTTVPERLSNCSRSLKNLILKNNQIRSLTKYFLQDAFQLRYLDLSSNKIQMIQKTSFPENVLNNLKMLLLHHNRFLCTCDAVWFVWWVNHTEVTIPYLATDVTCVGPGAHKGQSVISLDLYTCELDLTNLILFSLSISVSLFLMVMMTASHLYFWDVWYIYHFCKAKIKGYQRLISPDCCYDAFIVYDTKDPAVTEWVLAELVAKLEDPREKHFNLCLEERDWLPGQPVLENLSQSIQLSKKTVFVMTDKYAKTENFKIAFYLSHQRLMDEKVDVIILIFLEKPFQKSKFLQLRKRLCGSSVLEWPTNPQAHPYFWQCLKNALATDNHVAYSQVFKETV
In words: TLR7 inhibition reporter assay (HEK-Blue cells, SEAP reporter, gardiquimod stimulation). Particulars: HEK-Blue cells overexpressing human TLR7, SEAP reporter, gardiquimod 7.5 μM. The essentials:
as §1

In a further assay the target is T3, human TLR8 (Homo sapiens, UniProt Q9NR97).
T3 construct: host or cells: HEK-Blue cells
T3 sequence (Q9NR97 27-1041): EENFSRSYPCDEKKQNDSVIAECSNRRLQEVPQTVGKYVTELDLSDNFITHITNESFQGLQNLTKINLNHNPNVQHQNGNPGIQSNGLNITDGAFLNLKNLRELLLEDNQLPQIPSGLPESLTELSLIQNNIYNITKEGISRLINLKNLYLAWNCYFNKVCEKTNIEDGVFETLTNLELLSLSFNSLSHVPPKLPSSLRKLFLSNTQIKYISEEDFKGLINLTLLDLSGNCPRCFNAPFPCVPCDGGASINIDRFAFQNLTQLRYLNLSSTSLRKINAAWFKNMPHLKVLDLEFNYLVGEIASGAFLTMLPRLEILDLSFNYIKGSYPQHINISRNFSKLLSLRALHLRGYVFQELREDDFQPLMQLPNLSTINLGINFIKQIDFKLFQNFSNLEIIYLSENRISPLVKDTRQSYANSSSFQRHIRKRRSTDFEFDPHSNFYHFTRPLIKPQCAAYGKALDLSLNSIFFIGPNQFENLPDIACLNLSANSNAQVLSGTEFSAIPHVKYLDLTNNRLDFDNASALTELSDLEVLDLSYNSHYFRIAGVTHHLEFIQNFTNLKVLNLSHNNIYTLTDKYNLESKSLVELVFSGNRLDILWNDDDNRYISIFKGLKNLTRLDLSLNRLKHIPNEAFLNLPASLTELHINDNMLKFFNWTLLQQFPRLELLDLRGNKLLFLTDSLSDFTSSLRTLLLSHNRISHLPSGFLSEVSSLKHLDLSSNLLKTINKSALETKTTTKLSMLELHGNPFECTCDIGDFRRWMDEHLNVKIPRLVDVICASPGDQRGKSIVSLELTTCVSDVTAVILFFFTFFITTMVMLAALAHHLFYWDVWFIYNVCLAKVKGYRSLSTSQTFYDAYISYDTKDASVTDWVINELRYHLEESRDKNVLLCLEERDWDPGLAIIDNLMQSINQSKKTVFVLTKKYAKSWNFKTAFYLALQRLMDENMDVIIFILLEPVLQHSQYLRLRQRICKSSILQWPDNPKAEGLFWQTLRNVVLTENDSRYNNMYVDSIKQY
The experiment in a line: TLR8 inhibition reporter assay (HEK-Blue cells, SEAP reporter, R848 stimulation). The note with it: HEK-Blue cells overexpressing human TLR8, SEAP reporter, R848 15.9 μM. The essentials:
as §1

For `Cc1c(-c2[nH]c3ccc(C4CC(NC(=O)CN(C)C)C4)cc3c2C(C)C)cn2ncnc2c1C` (stereo not drawn) [Example 578], the values for the pIC50 at human TLR9, against human TLR7 and at human TLR8 were 5.19, 9.23 and 9.21, respectively.

With `Cc1cc(-c2[nH]c3ccc(C4CCC(NC5COC5)CC4)cc3c2C(C)C)cn2ncnc12` (stereo not drawn) [Example 57], the pIC50 is 5.22 at human TLR9, 9.00 at human TLR7 and 8.09 against human TLR8.

As to `Cc1cc(-c2[nH]c3ccc(C4CCC(N)CC4)cc3c2C(C)C)cn2ncnc12` (single isomer, unassigned) [Example 3], the pIC50 was 5.89 on human TLR9, 9.82 on human TLR7 and 9.00 on human TLR8.

Take `Cc1c(-c2[nH]c3ccc(C4CC(NCC#N)C4)cc3c2C(C)C)cn2ncnc2c1C` (stereo not drawn) [Example 567]: the pIC50 was 4.57 on human TLR9, 8.70 at human TLR7 and 8.96 against human TLR8.

With `Cc1cc(-c2[nH]c3ccc(C4CN(C(=O)CN(C)C)C(C)(C)CO4)cc3c2C(C)C)cn2ncnc12` (single isomer, unassigned) [Example 372, 2-(dimethylamino)-1-(2-(3-isopropyl-2-(8-methyl-[1,2,4]triazolo[1,5-a]pyridin-6-yl)-1H-indol-5-yl)-5,5-dimethylmorpholino)ethanone], the negative-log IC50 (pIC50) against human TLR9 was 4.57; at human TLR7, 8.10; at human TLR8, 7.96.

Consider `Cc1c(-c2[nH]c3ccc(C4CCC(N(C)C)CC4)cc3c2C(C)C)cn(C)c(=O)c1C` (stereo not drawn) [Example 476], for which the negative-log IC50 (pIC50) at human TLR9 was 5.32; against human TLR7 it was 8.52; on human TLR8 it was 8.59.

With `COc1cc(-c2[nH]c3ccc(C4CCC(NC5(C)COC5)CC4)cc3c2C(C)C)cn2ncnc12` (single isomer, unassigned) [Example 44], the pIC50 against human TLR9 is 5.71; at human TLR7, 9.68; at human TLR8, 9.12.

Take `Cc1cc(-c2[nH]c3ccc(C4CN(CC(=O)N(C)C)CCO4)cc3c2C(C)C)cn2ncnc12` (stereo not drawn) [Example 306, 2-(2-(3-isopropyl-2-(8-methyl-[1,2,4]triazolo[1,5-a]pyridin-6-yl)-1H-indol-5-yl)morpholino)-N,N-dimethylacetamide]: the values for the negative logarithm of the IC50 (pIC50) on human TLR9, at human TLR7 and on human TLR8 were below 4.30, 8.10 and 7.41, respectively.

For the compound `COc1cc(-c2[nH]c3ccc(CC4CN(CCS(C)(=O)=O)C4)cc3c2C(C)C)cn2ncnc12` [Example 431], the pIC50 against human TLR9 is 5.56; against human TLR7, 8.70; against human TLR8, 8.46.

`Cc1c(-c2[nH]c3ccc(C4CCCNC4)cc3c2C(C)C)ccc2ncnn12` (stereo not drawn) [Example 188]: the negative-log IC50 (pIC50) is 5.15 against human TLR9, 6.79 at human TLR7 and 7.18 at human TLR8.

Regarding `Cc1cc(-c2[nH]c3ccc(C4CN(C)CCO4)cc3c2C(C)C)cn2ncnc12` (stereo not drawn) [Example 293], the negative logarithm of the IC50 (pIC50) is 5.00 against human TLR9, 8.70 against human TLR7 and 8.96 against human TLR8.

As for `Cc1cc(-c2[nH]c3ccc(C4CCC(NC(=O)CN(C)C)CC4)cc3c2C(C)C)cc(C)n1` (stereo not drawn) [Example 119], the values for the pIC50 on human TLR9, against human TLR7 and against human TLR8 were 6.01, 9.02 and 8.14, respectively.

As for `Cc1cc(-c2[nH]c3ccc(C4CCC(N5CCOCC5)CC4)cc3c2C(C)C)cc(C)n1` (stereo not drawn) [Example 54], the results for the negative-log IC50 (pIC50) against human TLR9, on human TLR7 and against human TLR8 were 6.21, 8.70 and 8.48, respectively.

Take `Cc1c(-c2[nH]c3ccc(C4CCC(N(C)C)CC4)cc3c2C(C)C)cn2ncnc2c1C` (stereo not drawn) [Example 105]: the negative-log IC50 (pIC50) was 5.68 on human TLR9, 9.12 against human TLR7 and 8.74 against human TLR8.

In the case of `CC(C)c1c(-c2ccnc3[nH]ncc23)[nH]c2ccc(C3CCC(Oc4ccncc4)CC3)cc12` (stereo not drawn) [Example 505], the negative logarithm of the IC50 (pIC50) against human TLR9 was 4.86; on human TLR7 it was 6.46; at human TLR8 it was 6.11.

Turning to `Cc1cc(-c2[nH]c3ccc(C4CCC(C(=O)N5CCCCC5)CC4)cc3c2C(C)C)cn2ncnc12` (single isomer, unassigned) [Example 159], the negative-log IC50 (pIC50) on human TLR9 was 4.54; against human TLR7, 5.77; against human TLR8 it was 5.73.

Regarding `Cc1c(-c2[nH]c3ccc(C4CN(Cc5c[nH]nn5)C4)cc3c2C(C)C)cn2ncnc2c1C` [Example 551], the figures for the negative logarithm of the IC50 (pIC50) against human TLR9, on human TLR7 and against human TLR8 were 5.47, 8.70 and 8.49, respectively.

Consider `Cc1c(-c2[nH]c3ccc(C4CN(CC5CCOC5)C4)cc3c2C(C)C)cn(C)c(=O)c1Cl` (stereo not drawn) [Example 499], for which the pIC50 was 5.00 on human TLR9, 7.37 on human TLR7 and 7.60 on human TLR8.

In the case of `Cc1c(-c2[nH]c3ccc(C4CNC4)cc3c2C(C)C)cn2ncnc2c1C` [Example 545], the negative-log IC50 (pIC50) is 5.69 against human TLR9, 8.70 on human TLR7 and 8.42 at human TLR8.

Take `COc1cc(-c2[nH]c3ccc(C4CC(NCC(=O)N(C)C)C4)cc3c2C(C)C)cn2ncnc12` (stereo not drawn) [Example 570]: the pIC50 against human TLR9 is 5.46; on human TLR7 it was 9.03; at human TLR8, 9.05.

The pIC50 is the IC50 on a negative log10 scale, so that one unit is a factor of ten. A higher pIC50 goes with a small IC50.

The values above are taken from patent US11878975B2, “Substituted indole compounds useful as TLR inhibitors” (BRISTOL-MYERS SQUIBB COMPANY, priority 2017, dated 2024).
